From ChEMBL document CHEMBL1909046, “DrugMatrix in vitro pharmacology data”

Assays:
[1] = target: T1, Alpha-1A adrenergic receptor (Rattus norvegicus, UniProt P43140); assay: DRUGMATRIX: Alpha-1A adrenergic receptor radioligand binding (ligand: prazosin); format: cell membranes, Wistar, Submaxillary gland, Membrane; settings: Not Active = under 50% inhibition at 10 µM
T1 sequence (P43140 whole entry): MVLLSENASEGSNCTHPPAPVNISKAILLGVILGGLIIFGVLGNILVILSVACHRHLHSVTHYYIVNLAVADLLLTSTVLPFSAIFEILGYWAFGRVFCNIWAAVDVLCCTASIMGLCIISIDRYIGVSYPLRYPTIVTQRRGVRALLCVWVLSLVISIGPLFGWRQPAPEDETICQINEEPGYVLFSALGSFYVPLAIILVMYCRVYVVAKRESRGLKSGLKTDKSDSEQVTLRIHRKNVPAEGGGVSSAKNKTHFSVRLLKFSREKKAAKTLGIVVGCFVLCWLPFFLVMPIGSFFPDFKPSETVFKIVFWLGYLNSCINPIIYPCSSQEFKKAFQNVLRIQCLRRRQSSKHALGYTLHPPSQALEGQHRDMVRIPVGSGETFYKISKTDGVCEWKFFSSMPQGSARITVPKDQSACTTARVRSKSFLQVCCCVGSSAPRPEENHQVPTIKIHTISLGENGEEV

[2] = target: T2, Alpha-1D adrenergic receptor (Homo sapiens, UniProt P25100); format: cell membranes, HEK293, Membrane; settings: hek293; note: in other assays of this panel Not Active means under 50% inhibition at 10 µM
T2 sequence (P25100 whole entry): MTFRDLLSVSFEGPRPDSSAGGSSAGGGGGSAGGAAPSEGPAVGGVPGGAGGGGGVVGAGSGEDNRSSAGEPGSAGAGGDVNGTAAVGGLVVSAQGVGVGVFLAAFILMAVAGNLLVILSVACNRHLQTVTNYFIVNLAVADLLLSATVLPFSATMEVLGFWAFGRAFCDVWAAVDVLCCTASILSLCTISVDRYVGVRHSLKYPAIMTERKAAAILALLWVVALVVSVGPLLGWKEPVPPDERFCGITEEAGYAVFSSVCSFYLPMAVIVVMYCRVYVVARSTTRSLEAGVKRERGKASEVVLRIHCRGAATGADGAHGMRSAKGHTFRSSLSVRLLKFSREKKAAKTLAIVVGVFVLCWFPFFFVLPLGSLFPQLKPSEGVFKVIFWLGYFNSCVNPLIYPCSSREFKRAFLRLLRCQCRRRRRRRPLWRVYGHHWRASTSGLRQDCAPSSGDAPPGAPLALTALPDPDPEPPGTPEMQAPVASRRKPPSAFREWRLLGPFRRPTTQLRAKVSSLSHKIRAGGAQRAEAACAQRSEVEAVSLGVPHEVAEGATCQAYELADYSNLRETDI

[3] = DRUGMATRIX: ATPase, Na+/K+ enzyme inhibition (substrate: ATP); format: tissue-based, Sus scrofa, Heart; settings: Not Active = under 50% inhibition at 10 µM
[4] = DRUGMATRIX: beta-Lactamase enzyme inhibition (substrate: Nitrocefin); parameters: species or system Bacillus cereus; settings: Not Active = under 50% inhibition at 10 µM
[5] = DRUGMATRIX: Calcium Channel Type L, Benzothiazepine radioligand binding (ligand: [3H] Diltiazem); format: cell membranes, Rattus norvegicus, Wistar, Brain, Membrane; settings: Not Active = under 50% inhibition at 10 µM
[6] = target: Vasopressin V1a receptor (Homo sapiens, UniProt P37288); format: cell membranes, Membrane; settings: hek293; note: in other assays of this panel Not Active means under 50% inhibition at 10 µM
[7] = target: C-C chemokine receptor type 5 (Homo sapiens, UniProt P51681); format: cell membranes, Membrane; settings: hek293; note: in other assays of this panel Not Active means under 50% inhibition at 10 µM
[8] = target: Sodium-dependent dopamine transporter (Homo sapiens, UniProt Q01959); assay: DRUGMATRIX: Dopamine Transporter radioligand binding (ligand: [125I] RTI-55); format: cell membranes, CHO-K1, Membrane; settings: cho-k1; Not Active = under 50% inhibition at 10 µM
[9] = target: Histamine H2 receptor (Homo sapiens, UniProt P25021); format: cell membranes, CHO-K1, Membrane; settings: cho-k1; note: in other assays of this panel Not Active means under 50% inhibition at 10 µM
[10] = target: cGMP-specific 3',5'-cyclic phosphodiesterase (Homo sapiens, UniProt O76074); assay: DRUGMATRIX: Phosphodiesterase PDE5 enzyme inhibition (substrate: [3H]cGMP + cGMP); format: tissue-based, Platelet; settings: platelet; Not Active = under 50% inhibition at 10 µM
[11] = target: T3, Cathepsin G (Homo sapiens, UniProt P08311); format: tissue-based; settings: neutrophil
T3 sequence (P08311 whole entry): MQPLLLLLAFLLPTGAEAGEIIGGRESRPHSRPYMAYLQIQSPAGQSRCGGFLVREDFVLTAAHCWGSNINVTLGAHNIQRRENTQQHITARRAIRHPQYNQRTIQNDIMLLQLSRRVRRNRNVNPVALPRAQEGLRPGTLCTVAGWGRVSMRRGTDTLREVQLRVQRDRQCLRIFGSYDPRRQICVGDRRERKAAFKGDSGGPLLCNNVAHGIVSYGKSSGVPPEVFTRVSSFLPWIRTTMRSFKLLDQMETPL

[12] = target: Protein kinase C alpha type (Homo sapiens, UniProt P17252); format: cell-based; settings: sf9
[13] = target: Tyrosine-protein kinase Fyn (Homo sapiens, UniProt P06241); assay: biochemical; format: cell-based, Insect cells; settings: insect cells
[14] = target: T4, 5-hydroxytryptamine receptor 1A (Rattus norvegicus, UniProt P19327); format: cell membranes, CHO-K1, Membrane; settings: cho-k1; note: in other assays of this panel Not Active means under 50% inhibition at 10 µM
T4 sequence (P19327 whole entry): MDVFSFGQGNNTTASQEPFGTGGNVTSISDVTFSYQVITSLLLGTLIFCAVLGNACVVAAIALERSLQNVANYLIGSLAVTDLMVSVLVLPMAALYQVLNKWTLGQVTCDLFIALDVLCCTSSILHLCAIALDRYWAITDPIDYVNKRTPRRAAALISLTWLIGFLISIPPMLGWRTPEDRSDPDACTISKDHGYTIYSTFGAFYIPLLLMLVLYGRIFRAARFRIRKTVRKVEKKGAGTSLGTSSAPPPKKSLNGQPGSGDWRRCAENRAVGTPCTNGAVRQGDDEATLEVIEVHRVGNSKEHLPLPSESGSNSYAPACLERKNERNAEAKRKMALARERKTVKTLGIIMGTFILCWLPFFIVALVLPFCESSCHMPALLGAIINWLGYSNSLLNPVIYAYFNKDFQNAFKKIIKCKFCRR

Chain of Histamine H2 receptor (P25021 whole entry): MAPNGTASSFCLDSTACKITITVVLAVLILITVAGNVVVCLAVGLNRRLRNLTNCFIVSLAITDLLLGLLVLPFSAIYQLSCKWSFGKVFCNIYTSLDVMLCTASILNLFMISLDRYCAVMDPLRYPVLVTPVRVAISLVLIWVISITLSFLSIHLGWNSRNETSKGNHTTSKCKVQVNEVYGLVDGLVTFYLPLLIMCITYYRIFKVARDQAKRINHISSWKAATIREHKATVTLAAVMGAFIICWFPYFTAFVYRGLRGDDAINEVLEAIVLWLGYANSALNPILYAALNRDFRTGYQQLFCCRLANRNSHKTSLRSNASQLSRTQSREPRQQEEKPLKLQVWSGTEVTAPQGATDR
Chain of C-C chemokine receptor type 5 (P51681 whole entry): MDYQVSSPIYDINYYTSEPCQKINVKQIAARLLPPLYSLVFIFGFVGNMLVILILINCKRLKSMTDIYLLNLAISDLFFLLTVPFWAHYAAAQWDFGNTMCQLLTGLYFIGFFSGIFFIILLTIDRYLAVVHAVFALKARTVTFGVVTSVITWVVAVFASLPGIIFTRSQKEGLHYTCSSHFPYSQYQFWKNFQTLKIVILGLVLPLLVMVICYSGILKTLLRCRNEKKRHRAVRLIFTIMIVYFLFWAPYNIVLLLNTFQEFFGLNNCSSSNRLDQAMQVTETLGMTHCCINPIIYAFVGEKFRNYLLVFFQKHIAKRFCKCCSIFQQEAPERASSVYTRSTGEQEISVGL
Chain of Vasopressin V1a receptor (P37288 whole entry): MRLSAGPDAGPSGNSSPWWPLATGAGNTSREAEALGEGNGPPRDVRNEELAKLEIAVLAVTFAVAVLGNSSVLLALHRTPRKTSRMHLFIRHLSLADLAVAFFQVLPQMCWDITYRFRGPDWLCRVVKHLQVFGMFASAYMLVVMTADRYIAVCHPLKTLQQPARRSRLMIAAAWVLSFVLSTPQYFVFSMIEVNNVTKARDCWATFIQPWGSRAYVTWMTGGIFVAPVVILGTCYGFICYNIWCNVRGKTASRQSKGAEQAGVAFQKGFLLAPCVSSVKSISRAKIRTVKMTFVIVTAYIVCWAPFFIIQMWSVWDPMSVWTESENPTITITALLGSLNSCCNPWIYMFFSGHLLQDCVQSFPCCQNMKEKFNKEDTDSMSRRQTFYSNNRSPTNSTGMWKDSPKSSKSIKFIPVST
Chain of Tyrosine-protein kinase Fyn (P06241 whole entry): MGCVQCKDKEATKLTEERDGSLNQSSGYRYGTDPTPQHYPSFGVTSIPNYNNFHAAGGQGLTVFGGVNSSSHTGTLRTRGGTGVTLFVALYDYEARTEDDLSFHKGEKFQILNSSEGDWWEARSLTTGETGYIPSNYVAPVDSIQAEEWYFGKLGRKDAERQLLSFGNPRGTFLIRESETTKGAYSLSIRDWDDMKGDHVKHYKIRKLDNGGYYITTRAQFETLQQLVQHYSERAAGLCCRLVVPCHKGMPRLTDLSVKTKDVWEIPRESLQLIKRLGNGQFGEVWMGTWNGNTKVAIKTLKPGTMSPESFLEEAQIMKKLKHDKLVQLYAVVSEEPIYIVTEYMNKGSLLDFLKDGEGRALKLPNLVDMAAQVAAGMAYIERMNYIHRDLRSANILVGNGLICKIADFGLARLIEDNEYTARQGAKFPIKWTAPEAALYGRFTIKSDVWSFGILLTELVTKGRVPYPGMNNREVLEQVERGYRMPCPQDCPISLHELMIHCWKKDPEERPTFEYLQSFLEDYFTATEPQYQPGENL
Chain of Sodium-dependent dopamine transporter (Q01959 whole entry): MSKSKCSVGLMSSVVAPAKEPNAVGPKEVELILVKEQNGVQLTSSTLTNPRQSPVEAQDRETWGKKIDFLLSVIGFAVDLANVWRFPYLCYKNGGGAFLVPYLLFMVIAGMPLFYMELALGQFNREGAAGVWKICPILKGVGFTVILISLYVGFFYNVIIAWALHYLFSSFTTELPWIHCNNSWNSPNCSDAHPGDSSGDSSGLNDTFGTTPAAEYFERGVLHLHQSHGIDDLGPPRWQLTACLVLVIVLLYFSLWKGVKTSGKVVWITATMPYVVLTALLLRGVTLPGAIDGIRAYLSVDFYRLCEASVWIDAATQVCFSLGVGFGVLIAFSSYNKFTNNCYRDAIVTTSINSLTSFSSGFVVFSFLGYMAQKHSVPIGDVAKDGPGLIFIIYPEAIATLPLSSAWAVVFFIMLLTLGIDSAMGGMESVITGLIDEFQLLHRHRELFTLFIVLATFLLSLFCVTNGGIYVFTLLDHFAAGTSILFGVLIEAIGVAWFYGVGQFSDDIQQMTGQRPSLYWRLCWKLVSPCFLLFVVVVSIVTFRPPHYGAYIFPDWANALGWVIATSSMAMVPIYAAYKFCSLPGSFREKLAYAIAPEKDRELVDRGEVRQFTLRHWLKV

CC[N+](CC)(CC)CCOc1cccc(OCC[N+](CC)(CC)CC)c1OCC[N+](CC)(CC)CC.[I-].[I-].[I-] [GALLAMINE TRIETHIODIDE]
Not Active: IC50 [1] | IC50 [2] | IC50 [3] | Ki [3] | IC50 [4] | Ki [4] | IC50 [5] | Ki [5] | IC50 [6] | IC50 [7] | IC50 [8] | IC50 [9] | IC50 [10] | IC50 [11] | IC50 [12] | IC50 [13] | IC50 [14]

Nc1nc2c(ncn2COC(CO)CO)c(=O)[nH]1 [GANCICLOVIR]
Not Active: IC50 [1] | IC50 [2] | IC50 [3] | Ki [3] | IC50 [4] | Ki [4] | IC50 [5] | Ki [5] | IC50 [6] | IC50 [7] | IC50 [8] | IC50 [9] | IC50 [10] | IC50 [11] | IC50 [12] | IC50 [13] | IC50 [14]

COc1c(N2CCNC(C)C2)c(F)cc2c(=O)c(C(=O)O)cn(C3CC3)c12 (stereo not drawn) [GATIFLOXACIN]
Not Active: IC50 [1] | IC50 [2] | IC50 [3] | Ki [3] | IC50 [4] | Ki [4] | IC50 [5] | Ki [5] | IC50 [6] | IC50 [7] | IC50 [8] | IC50 [9] | IC50 [10] | IC50 [11] | IC50 [12] | IC50 [13] | IC50 [14]

NCC(=O)O [GLYCINE]
Not Active: IC50 [1] | IC50 [2] | IC50 [3] | Ki [3] | IC50 [4] | Ki [4] | IC50 [5] | Ki [5] | IC50 [6] | IC50 [7] | IC50 [8] | IC50 [9] | IC50 [10] | IC50 [11] | IC50 [12] | IC50 [13] | IC50 [14]

CC1(C)[C@@H](O[C@H]2O[C@H](C(=O)O)[C@@H](O)[C@H](O)[C@H]2O[C@@H]2O[C@H](C(=O)O)[C@@H](O)[C@H](O)[C@H]2O)CC[C@]2(C)[C@H]3C(=O)C=C4[C@@H]5C[C@@](C)(C(=O)O)CC[C@]5(C)CC[C@@]4(C)[C@]3(C)CC[C@@H]12 [GLYCYRRHIZIN]
Not Active: IC50 [1] | IC50 [2] | IC50 [3] | Ki [3] | IC50 [4] | Ki [4] | IC50 [5] | Ki [5] | IC50 [6] | IC50 [7] | IC50 [8] | IC50 [9] | IC50 [10] | IC50 [11] | IC50 [12] | IC50 [13] | IC50 [14]

COC1=CC(=O)C[C@@H](C)[C@]12Oc1c(Cl)c(OC)cc(OC)c1C2=O [GRISEOFULVIN]
Not Active: IC50 [1] | IC50 [2] | IC50 [3] | Ki [3] | IC50 [4] | Ki [4] | IC50 [5] | Ki [5] | IC50 [6] | IC50 [7] | IC50 [8] | IC50 [9] | IC50 [10] | IC50 [11] | IC50 [12] | IC50 [13] | IC50 [14]

C/C=C1\[C@H]2C=C(C)C[C@]1(N)c1ccc(=O)[nH]c1C2 [HUPERZINE A]
Not Active: IC50 [1] | IC50 [2] | IC50 [3] | Ki [3] | IC50 [4] | Ki [4] | IC50 [5] | Ki [5] | IC50 [6] | IC50 [7] | IC50 [8] | IC50 [9] | IC50 [10] | IC50 [11] | IC50 [12] | IC50 [13] | IC50 [14]

NS(=O)(=O)c1cc2c(cc1Cl)NCNS2(=O)=O [HYDROCHLOROTHIAZIDE]
Not Active: IC50 [1] | IC50 [2] | IC50 [3] | Ki [3] | IC50 [4] | Ki [4] | IC50 [5] | Ki [5] | IC50 [6] | IC50 [7] | IC50 [8] | IC50 [9] | IC50 [10] | IC50 [11] | IC50 [12] | IC50 [13] | IC50 [14]

O=P1(NCCCl)OCCCN1CCCl (stereo not drawn) [IFOSFAMIDE]
Not Active: IC50 [1] | IC50 [2] | IC50 [3] | Ki [3] | IC50 [4] | Ki [4] | IC50 [5] | Ki [5] | IC50 [6] | IC50 [7] | IC50 [8] | IC50 [9] | IC50 [10] | IC50 [11] | IC50 [12] | IC50 [13] | IC50 [14]
